Results on six compounds are retold here after patent publication US20180273571A1, “CONCISE SYNTHESIS OF UREA DERIVATIVES OF AMPHOTERICIN B” (THE BOARD OF TRUSTEES OF THE UNIVERSITY OF ILLINOIS, priority 2015, published 2018).

Data set [1] deals with Saccharomyces cerevisiae. Description: Broth microdilution assay (MIC) against Saccharomyces cerevisiae. In kind it is cell-based. To be noted: for MIC: broth microdilution, read-out: MIC S. cerevisiae. As to the method:
(§1) With efficient access to this novel AmB chemotype, ureas AmBAU, AmBMU, and AmBCU were compared to AmB and a range of previously reported AmB derivatives in an in vitro antifungal and human cell toxicity screen. Yeast toxicity was measured with broth microdilution assays (MIC) against Saccharomyces cerevisiae. Human cell toxicity was studied by determining the amount of compound required to cause 90% hemolysis of human erythrocytes (EH90). […] Methyl esterification (AmBME) retains antifungal activity at 0.25 μM against S. cerevisiae, while decreasing hemolysis concentration to one third that seen with AmB. […] Hemolysis activity remained similar to AmBME and C41MeAmB. Bis-amino alkylated amide derivative AmBNR2 was previously shown to moderately improve the therapeutic index.
(§2) Each derivative proposed herein is tested for biological activity against both yeast and human cells to determine its therapeutic index. A broth microdilution experiment determines the MIC (minimum inhibitory concentration) of each derivative against S. cerevisiae and the clinically relevant C. albicans, thereby establishing the antifungal activity of each novel derivative. To test for toxicity against human cells, each compound is exposed to a hemolysis assay against red blood cells which determines the concentration required to cause 90% lysis of human red blood cells (EH90). Additionally, each compound is exposed to human primary renal tubule cells to determine the toxicity of each compound against kidney cells. These assays when compared against the known values of AmB against the same cell lines determine the improvement in therapeutic index of each compound.

The subject of data set [2] is human erythrocytes (red blood cells). Description: Hemolysis assay of human erythrocytes (EH90). In kind it is cell-based. Here is the method:
as §1, §2

The conditions of data set [3]: Wilcock et al., J Am Chem Soc 135:8488 (2013); cited from earlier work.
For data set [4], the system named is human cells. The settings on record: in vitro studies, previously reported; cited from earlier work.
For data set [5] the following is noted: Wilcock et al., J Am Chem Soc 135:8488 (2013); cited from earlier work. This is another data set of the same source.
The subject of data set [6] is yeast. The settings on record: in vitro studies, previously reported; cited from earlier work.
The test system of data set [7] is Candida albicans. Description: Broth microdilution MIC against C. albicans. The format is cell-based. As to the method:
Urea derivatives AmBAU, AmBMU, and AmBCU maintain potent antifungal activity ranging from 0.125 μM to 3 μM against S. cerevisiae. […] AmBCU required 324 μM to cause 90% hemolysis in red blood cells, more than 30× required by AmB. Encouraged by this initial therapeutic index screen the urea series was further tested against the clinically relevant fungal cell line Candida albicans. C. albicans is the most common human fungal infection. AmB inhibits yeast grown of C. albicans at 0.25 μM. Similar to the trend seen with S. cerevisiae, the potency of the urea derivatives increased with increasing amount of cationic character. AmBAU, AmBMU, and AmBCU require 0.25, 0.5, and 1 μM respectively (Table 2).
Each derivative proposed herein is tested for biological activity against both yeast and human cells to determine its therapeutic index. A broth microdilution experiment determines the MIC (minimum inhibitory concentration) of each derivative against S. cerevisiae and the clinically relevant C. albicans, thereby establishing the antifungal activity of each novel derivative. To test for toxicity against human cells, each compound is exposed to a hemolysis assay against red blood cells which determines the concentration required to cause 90% lysis of human red blood cells (EH90). […]
A general note: In broth dilution the organism is exposed to a series of concentrations in liquid medium.

Data set [8] can be described thus: Acute toxicity, single intravenous administration to healthy mice, lethality. The format is in vivo. The settings on record: single intravenous 4 mg/kg. As to the method: FIG. 6 is a graph depicting lethality in healthy mice of single intravenous administration in the doses indicated of AmB, AmBMU, or AmBAU.
In a separate set of experiments, acute toxicity was evaluated by single intravenous administration of 1, 2, 4, 8, 16, 32, or 64 mg/kg AmB or its derivatives to healthy mice, followed by monitoring for lethality. […] AmBAU was drastically less toxic with >50% lethality not being reached until the 64 mg/kg dosage group.

Converted amounts (≈) assume the structure as drawn. Like-named read-outs stand apart in the source and are kept apart here.

Turning to `CC(C)/C=C/[C@@H](CC1O[C@](O)(C[C@@H](O)C(C)C)C[C@H](O)[C@H]1C(=O)NCCN)OC1OC(C)C(O)C(N)C1O` (stereo partly shown) [AmBAA], in data set [1] (Saccharomyces cerevisiae), the MIC came out at 0.03 µM (≈ 0.0164 µg/mL). For the same compound, in data set [2] (human), the “EH90 red blood cells” value is 33.96 ± 8.85 µM.

As for `COC(=O)[C@H]1C(C[C@H](/C=C/C(C)C)OC2OC(C)C(O)C(N)C2O)O[C@](O)(C[C@@H](O)C(C)C)C[C@@H]1O` (stereo partly shown) [AmBME], in data set [1] (Saccharomyces cerevisiae), the MIC was found to be 0.25 µM (≈ 0.13 µg/mL). Also, the “hemolysis concentration relative to that seen with AmB” value in data set [2] is given as “one third”. Further, in data set [2] (human), the “EH90 red blood cells” value is 30.67 ± 5.38 µM.

`CC(C)/C=C/[C@@H](CC1O[C@](O)(C[C@@H](O)C(C)C)C[C@H](O)[C@H]1C(=O)NCCn1cncn1)OC1OC(C)C(O)C(N(CCCN)CCCN)C1O` (stereo partly shown) [AmBNR2]: the MIC in data set [1] (Saccharomyces cerevisiae) was 0.25 µM (≈ 0.178 µg/mL).

Turning to `CC(C)/C=C/[C@H](O)CC1O[C@](O)(C[C@@H](O)C(C)C)C[C@H](O)[C@H]1C(=O)O` (stereo partly shown) [AmdeB], the MIC in data set [1] (Saccharomyces cerevisiae) was greater than 500 µM. Further, the “cell-killing activity in yeast assay” value in data set [1] (in words) is “completely abolishes cell-killing activity”. The “cell-killing activity in human cell assay” value in data set [2] is “completely abolishes cell-killing activity”. Also, the “EH90 red blood cells” value in data set [2] (human) is greater than 500 µM.

Turning to `CC1C=CC=CC=CC=CC=CC=CC=CC(OC2CC(N)C(O)C(C)O2)CC2OC(O)(CC(O)CC(O)C(O)CCC(O)CC(O)CC(=O)OC(C)C(C)C1O)CC(O)C2C(=O)O` (stereo not shown) [C2′deOAmB], in data set [3], the ergosterol-binding ability entry is reported as “retains ergosterol-binding ability”. Also, the “toxicity to human cells” value in data set [4] is on record as “not human cells”. For the same compound, in data set [5], the binding to cholesterol result was “shows no binding to cholesterol”. Besides, the toxicity to yeast result in data set [6] was “toxic to yeast”.

In the case of amphotericin B [AmB], the “MIC C. albicans” value in data set [7] stood at 0.25 µM. Besides, the MIC in data set [1] turned out to be 0.5 µM. The “EH90 red blood cells” value is 10.37 ± 1.17 µM in data set [2] (amount of compound required to cause 90% hemolysis of human erythrocytes) and 10.4 µM in data set [2] (amount of compound required to cause 90% hemolysis of human erythrocytes, listed as Amphotericin B). In data set [8], the lethality entry was “died within seconds”.

What is called MIC is the lowest concentration that inhibits growth of the organism.
